Results reported in patent US20240374750A1, “LINKER COMPOUND AND COMPLEX COMPOUND CONTAINING SAME” (TOHOKU UNIVERSITY, priority 2021, published 2024).

Experiments:
Assay type in all cases: physicochemical
[1] = Cleavage reaction under cancer cell model condition, NMR (Test Examples 6 and 9)
Description: At a concentration of ArS—SrA (H) of the formula (7) (225 μM) assuming a realistic intracellular drug concentration, a GSH concentration of a cancer cell was approximated to 20 mM, and the same measurement was performed.
(§1) To prevent a peak of the aromatic region having a low concentration from being overlapped by the peak of CHCl3 contained in CDCl3, the measurement was performed with D2O in the outside the double tube. The overall compound concentration was low and the peak ratio of water was high, and thus, the number of times of integration was increased for measurement to distinguish between the peaks of the compounds and the peak of the baseline.
ArSSrA (F) and ArSSrA (NO2) were subjected to the same test as in Test Example 6 to examine their cleavage reactions in the normal cell model and the cancer cell model. The results of ArSSrA (F) and ArSSrA (NO2) are shown in Table 6 and Table 7, respectively.

[2] = Reductive cleavage reaction of F- and NO2-substituted products, NMR (Test Examples 7 and 8); settings: same conditions as in Test Example 5
[3] = Reductive cleavage reaction with GSH in mixed system, NMR (Test Example 4); settings: ArSSrA (H)/GSH=4.4 mM/4.5 mM, 50 mM phosphate buffer
Description: As NMR spectrum measurement conditions, GSH of the formula (13) was added to ArSSrA (H) of the formula (7) in a 50 mM phosphate buffer to adjust a solution of ArSSrA (H)/GSH=4.4 mM/4.5 mM, and the measurement by NMR was carried out. A double tube (SHIGEMI Co., Ltd., Model SP-405) was used and a TMS-containing CDCl3 solution (LOCK solvent) was placed in the outside to adjust an NMR tube.
In the NMR measurement, the water elimination (presaturation method) measurement was performed with reference to Casi, G. et al., J. Controlled Release. 2012, 161, 121, 422 to 428, and the like.
(Initial concentration ArSSrA (H)/GSH=4.4 mM/4.5 mM)

[4] = Cleavage reaction under normal cell model condition, NMR (Test Example 5); settings: ArS—SrA 225 μM, GSH 450 μM (normal cell model)
Description: ArS—SrA (H) of the formula (7) was administered to a cell model of a GSH concentration assuming a realistic intracellular drug concentration to examine the cleavage reaction of the linker compound.
as §1, with “At an ArS—SrA (H) concentration (225 μM), the GSH concentration of a normal cell was approximated to 450 μM, and the same measurement was performed. To” for “To”, “in” for “in the”

[5] = Reductive cleavage reaction with LiBH4 in THF traced by UV spectrum (Test Example 2); settings: 45 μM in THF, 11 equivalents LiBH4, absorption at 242 nm
Description: The control of the electron density of the S atom by the substituent was expected from the above NMR results, and thus, a reductive cleavage reaction of the thiophenol-type disulfide linker was actually examined. First, a reaction of a thiophenol derivative model compound (compound of formula (2)) with a reducing agent LiBH4 in an organic solvent THF was carried out as a model reaction (formula (12)) using a UV spectrum which can be easily examined, and a pseudo-first order reaction rate was examined.
As the THF, THF available from Wako Pure Chemical Industries, Ltd., product code 207-17765, super dehydrated, and stabilizer-free was used, and as the cell, a cell of 10 mm×10 mm was used. A reduction reaction of an oxidized form (disulfide) of the compound of the formula (2), which is an unsubstituted model compound, was carried out in the cell. The reaction was carried out using an excess amount (11 equivalents) of LiBH4 relative to the oxidized form of the compound of the formula (2) (45 μM in THF). LiBH4 was adjusted by diluting a commercially available THF 2M solution and used in the reaction.

[6] = ArS—SrA 225 μM, GSH 20 mM (cancer cell model), 100 min.
[7] = ArS—SrA 225 μM, GSH 20 mM (cancer cell model), 100 minutes
[8] = ArS—SrA 225 μM, GSH 20 mM (cancer cell model), 1 day

Q: With O=C(O)c1c(F)cccc1SSc1cccc(F)c1C(=O)O [ArSSrA (F)] as the compound, how does the ArSH abundance ratio [1, 6] read?
A: 92%

Q: What about the “ArS—SG abundance ratio (1st ArS—SG column)” value [1, 6] of the same compound?
A: 0%

Q: And the “ArS—SG abundance ratio (2nd ArS—SG column)” value [1, 6]?
A: 0%

Q: And the “ArS—SrA abundance ratio (remaining disulfide)” value [1, 6]?
A: 8%

Q: What about the GSH abundance ratio [1, 6] of the same compound?
A: 96%

Q: And the “GS—SG abundance ratio” value [1, 6]?
A: 3.8%

Q: And the “linker disulfide cleaved (dissociated)” value [1, 7]?
A: about 90%

Q: What about the ArSH abundance ratio [1, 8] of the same compound?
A: 100%

Q: What about the “ArS—SG abundance ratio (1st ArS—SG column)” value [1, 8] of the same compound?
A: 0%

Q: And the “ArS—SG abundance ratio (2nd ArS—SG column)” value [1, 8]?
A: 0%

Q: What about the “ArS—SrA abundance ratio (remaining disulfide)” value [1, 8] of the same compound?
A: 0%

Q: What about the GSH abundance ratio [1, 8] of the same compound?
A: 90%

Q: And the “GS—SG abundance ratio” value [1, 8]?
A: 9.5%

Q: What about the “linker disulfide cleaved (dissociated)” value [1, 8] of the same compound?
A: all

Q: What about the ArSH abundance ratio ([2]; 100 min.) of the same compound?
A: 38%

Q: And the “ArS—SG abundance ratio (1st ArS—SG column)” value ([2]; 100 min.)?
A: 20%

Q: And the “ArS—SG abundance ratio (2nd ArS—SG column)” value ([2]; 100 min.)?
A: 39%

Q: What about the “ArS—SrA abundance ratio (remaining disulfide)” value ([2]; 100 min.) of the same compound?
A: 42%

Q: What about the GSH abundance ratio ([2]; 100 min.) of the same compound?
A: 42%

Q: What about the “GS—SG abundance ratio” value ([2]; 100 min.) of the same compound?
A: 9%

Q: And the ArSH abundance ratio ([2]; 1 day)?
A: 36%

Q: What about the “ArS—SG abundance ratio (1st ArS—SG column)” value ([2]; 1 day) of the same compound?
A: 21%

Q: And the “ArS—SG abundance ratio (2nd ArS—SG column)” value ([2]; 1 day)?
A: 41%

Q: And the GSH abundance ratio ([2]; 1 day)?
A: 8%

Q: And the “GS—SG abundance ratio” value ([2]; 1 day)?
A: 26%

Q: With O=C(O)c1ccccc1SSc1ccccc1C(=O)O [ArSSrA (H)] as the compound, how does the ArSH abundance ratio [1, 6] read?
A: 82%

Q: And the “ArS—SG abundance ratio (1st ArS—SG column)” value [1, 6]?
A: 0%

Q: What about the “ArS—SG abundance ratio (2nd ArS—SG column)” value [1, 6] of the same compound?
A: 0%

Q: What about the “ArS—SrA abundance ratio (remaining disulfide)” value [1, 6] of the same compound?
A: 19%

Q: What about the GSH abundance ratio [1, 6] of the same compound?
A: 97%

Q: What about the “GS—SG abundance ratio” value [1, 6] of the same compound?
A: 3.4%

Q: And the “linker disulfide cleaved (dissociated)” value [1, 7]?
A: 82%

Q: What about the ArSH abundance ratio [1, 8] of the same compound?
A: 100%

Q: What about the “ArS—SG abundance ratio (1st ArS—SG column)” value [1, 8] of the same compound?
A: 0%

Q: And the “ArS—SG abundance ratio (2nd ArS—SG column)” value [1, 8]?
A: 0%

Q: What about the “ArS—SrA abundance ratio (remaining disulfide)” value [1, 8] of the same compound?
A: 0%

Q: What about the GSH abundance ratio [1, 8] of the same compound?
A: 91%

Q: And the “GS—SG abundance ratio” value [1, 8]?
A: 8.8%

Q: What about the “linker disulfide cleaved (dissociated)” value [1, 8] of the same compound?
A: 100%

Q: And the ArSH abundance ratio ([3]; 25 min.)?
A: 13%

Q: And the “ArS—SG abundance ratio (1st ArS—SG column)” value ([3]; 25 min.)?
A: 3.8%

Q: What about the “ArS—SG abundance ratio (2nd ArS—SG column)” value ([3]; 25 min.) of the same compound?
A: 7.2%

Q: What about the “ArS—SrA abundance ratio (remaining disulfide)” value ([3]; 25 min.) of the same compound?
A: 83%

Q: What about the GSH abundance ratio ([3]; 25 min.) of the same compound?
A: 74%

Q: What about the “GS—SG abundance ratio” value ([3]; 25 min.) of the same compound?
A: 19%

Q: What about the ArSH abundance ratio ([3]; 100 min.) of the same compound?
A: 26%

Q: And the “ArS—SG abundance ratio (1st ArS—SG column)” value ([3]; 100 min.)?
A: 11%

Q: What about the “ArS—SG abundance ratio (2nd ArS—SG column)” value ([3]; 100 min.) of the same compound?
A: 20%

Q: And the “ArS—SrA abundance ratio (remaining disulfide)” value ([3]; 100 min.)?
A: 62%

Q: What about the GSH abundance ratio ([3]; 100 min.) of the same compound?
A: 48%

Q: And the “GS—SG abundance ratio” value ([3]; 100 min.)?
A: 32%

Q: And the ArSH abundance ratio ([3]; 1 day)?
A: 12%

Q: What about the “ArS—SG abundance ratio (1st ArS—SG column)” value ([3]; 1 day) of the same compound?
A: 31%

Q: What about the “ArS—SG abundance ratio (2nd ArS—SG column)” value ([3]; 1 day) of the same compound?
A: 57%

Q: What about the “ArS—SrA abundance ratio (remaining disulfide)” value ([3]; 1 day) of the same compound?
A: 57%

Q: What about the GSH abundance ratio ([3]; 1 day) of the same compound?
A: 11%

Q: And the “GS—SG abundance ratio” value ([3]; 1 day)?
A: 32%

Q: And the ArSH abundance ratio ([4]; 100 min.)?
A: 8.2%

Q: What about the “ArS—SG abundance ratio (1st ArS—SG column)” value ([4]; 100 min.) of the same compound?
A: 2%

Q: And the “ArS—SG abundance ratio (2nd ArS—SG column)” value ([4]; 100 min.)?
A: 1.8%

Q: And the “ArS—SrA abundance ratio (remaining disulfide)” value ([4]; 100 min.)?
A: 89%

Q: And the GSH abundance ratio ([4]; 100 min.)?
A: 88%

Q: What about the “GS—SG abundance ratio” value ([4]; 100 min.) of the same compound?
A: 10%

Q: And the ArSH abundance ratio ([4]; 1 day)?
A: 3.3%

Q: What about the “ArS—SG abundance ratio (1st ArS—SG column)” value ([4]; 1 day) of the same compound?
A: 24%

Q: What about the “ArS—SG abundance ratio (2nd ArS—SG column)” value ([4]; 1 day) of the same compound?
A: 21%

Q: What about the “ArS—SrA abundance ratio (remaining disulfide)” value ([4]; 1 day) of the same compound?
A: 84%

Q: And the “GSH abundance ratio (GSH remained)” value ([4]; 1 day)?
A: 18%

Q: What about the GSH consumed ([4]; 1 day) of the same compound?
A: 82%

Q: And the “GS—SG abundance ratio” value ([4]; 1 day)?
A: 62%

Q: And the linker disulfide cleaved ([4]; 1 day)?
A: about 16%

Q: Which “ArS—SrA abundance ratio (remaining disulfide)” value ([1]; 100 min, 225 μM) does the source give for O=C(O)c1cc(SSc2ccc([N+](=O)[O-])c(C(=O)O)c2)ccc1[N+](=O)[O-] [ArSSrA (NO2)] here?
A: 5%

Q: What about the “ArS—SrA abundance ratio (remaining disulfide)” value ([1]; 24 h, 225 μM) of the same compound?
A: 0%

Q: What about the ArSH abundance ratio [1, 6] of the same compound?
A: 95%

Q: What about the “ArS—SG abundance ratio (1st ArS—SG column)” value [1, 6] of the same compound?
A: 0%

Q: What about the “ArS—SG abundance ratio (2nd ArS—SG column)” value [1, 6] of the same compound?
A: 0%

Q: What about the GSH abundance ratio [1, 6] of the same compound?
A: 95%

Q: And the “GS—SG abundance ratio” value [1, 6]?
A: 4%

Q: And the “linker disulfide cleaved (dissociated)” value [1, 7]?
A: about 90%

Q: What about the ArSH abundance ratio [1, 8] of the same compound?
A: 100%

Q: And the “ArS—SG abundance ratio (1st ArS—SG column)” value [1, 8]?
A: 0%

Q: And the “ArS—SG abundance ratio (2nd ArS—SG column)” value [1, 8]?
A: 0%

Q: And the GSH abundance ratio [1, 8]?
A: 90%

Q: And the “GS—SG abundance ratio” value [1, 8]?
A: 10%

Q: And the “linker disulfide cleaved (dissociated)” value [1, 8]?
A: all

Q: What about the ArSH abundance ratio ([2]; 100 min.) of the same compound?
A: 51%

Q: And the “ArS—SG abundance ratio (1st ArS—SG column)” value ([2]; 100 min.)?
A: 20%

Q: And the “ArS—SG abundance ratio (2nd ArS—SG column)” value ([2]; 100 min.)?
A: 39%

Q: What about the “ArS—SrA abundance ratio (remaining disulfide)” value ([2]; 100 min.) of the same compound?
A: 29%

Q: And the GSH abundance ratio ([2]; 100 min.)?
A: 30%

Q: What about the “GS—SG abundance ratio” value ([2]; 100 min.) of the same compound?
A: 9%

Q: And the ArSH abundance ratio ([2]; 1 day)?
A: 48%

Q: And the “ArS—SG abundance ratio (1st ArS—SG column)” value ([2]; 1 day)?
A: 22%

Q: What about the “ArS—SG abundance ratio (2nd ArS—SG column)” value ([2]; 1 day) of the same compound?
A: 45%

Q: And the GSH abundance ratio ([2]; 1 day)?
A: 4%

Q: What about the “GS—SG abundance ratio” value ([2]; 1 day) of the same compound?
A: 26%

Q: For c1ccc(SSc2ccccc2)cc1 [formula (2)], which “pseudo first order reaction rate constant k” value [5] is on record?
A: 1.97×10^−2
